± gives the standard deviation of the averaged measurements.
System: SK-LMS-1
Test: relative viability vs DMSO control (72 h) (fraction); higher = more viable cells
Summary of the method: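 Sarcoma cell lines were seeded in 384-well plates at densities chosen for 80–90% confluence, then 24 h later given 2.5 µl of serially diluted compound drawn from source plates spanning 10 mM to 0.0002 mM. They were held 72 h at 37 °C, 5% CO2, with 0.1% DMSO vehicle and a 5 µM positive control included. Relative viability was read with ATPLite as percent growth and averaged over up to triplicate wells. Rescaling placed full at 1 and none at 0.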

Row | Compound | relative viability (2 pM) | relative viability (5 pM) | relative viability (15 pM) | relative viability (50 pM) | relative viability (0.00014 µM) | relative viability (0.00041 µM) | relative viability (0.0012 µM) | relative viability (0.0037 µM) | relative viability (0.011 µM) | relative viability (200 fM) | relative viability (600 fM) | relative viability (0.00017 µM) | relative viability (0.00051 µM) | relative viability (0.00152 µM) | relative viability (0.00457 µM) | relative viability (0.01372 µM) | relative viability (0.04115 µM) | relative viability (0.1235 µM) | relative viability (0.3704 µM) | relative viability (1.111 µM) | relative viability (3.333 µM) | relative viability (10 µM)
1 | COc1cc2c(cc1O)CCN[C@]21CS[C@@H]2c3c(OC(C)=O)c(C)c4c(c3[C@H](COC1=O)N1[C@@H]2[C@H]2c3c(cc(C)c(OC)c3O)C[C@@H]([C@@H]1O)N2C)OCO4 [Trabectedin] | 1.06 ± 0.08 | 1.04 ± 0.026 | 1.03 ± 0.043 | 1.06 ± 0.045 | 1.07 ± 0.052 | 0.848 ± 0.04 | 0.255 ± 0.014 | 0.332 ± 0.006 | 0.35 ± 0.014 | 1.03 ± 0.076 | 1.06 ± 0.048 |  |  |  |  |  |  |  |  |  |  | 
2 | Nc1cc(C(F)(F)F)c(-c2cc(N3CCOCC3)nc(N3CCOCC3)n2)cn1 [Buparlisib] |  |  |  |  |  |  |  |  |  |  |  | 1.02 ± 0.031 | 0.9986 ± 0.0078 | 1.01 ± 0.035 | 1.02 ± 0.013 | 1.01 ± 0.038 | 0.9304 ± 0.0067 | 0.825 ± 0.018 | 0.686 ± 0.015 | 0.3771 ± 0.0013 | 0.148 ± 0.0057 | 0.102 ± 0.0085
3 | CC(C)NC(=O)C1CCC(n2c(NC(=O)c3ccc(F)cc3)nc3ccc(CN4CCC(C(C)(C)O)CC4)cc32)CC1 (centres undefined) [Belizatinib] |  |  |  |  |  |  |  |  |  |  |  | 1.05 ± 0.024 | 1.06 ± 0.021 | 1.06 ± 0.039 | 1.07 ± 0.04 | 1.07 ± 0.069 | 1.11 ± 0.046 | 1.09 ± 0.023 | 1.04 ± 0.074 | 0.949 ± 0.05 | 0.758 ± 0.018 | 0.38 ± 0.021
4 | N#CC[C@H](C1CCCC1)n1cc(-c2ncnc3[nH]ccc23)cn1 [Ruxolitinib] |  |  |  |  |  |  |  |  |  |  |  | 1.03 ± 0.012 | 1 ± 0.037 | 0.995 ± 0.036 | 1.03 ± 0.034 | 1.036 ± 0.0052 | 1.035 ± 0.0072 | 1.02 ± 0.021 | 1.03 ± 0.029 | 1.03 ± 0.039 | 0.986 ± 0.033 | 0.828 ± 0.02

Reference: the supplement of paper PMC10883282
